Patent publication US10383834B2, “Reduced dose intravenous acetaminophen” (MALLINCKRODT HOSPITAL PRODUCTS IP LIMITED, priority 2007, dated 2019)

Assays:
[1] = Subject Global Evaluations in Phase III open-label multi-day study of IV acetaminophen (4 point categorical rating scale); assay type: in vivo, human; conditions: for Subject Global Assessment, level of satisfaction with the study treatments, difference versus control group: any of the assessment points
Protocol: A Phase III, open-label, prospective, multi-center, repeated dose, randomized, multi-day safety and efficacy study was conducted in 213 subjects. The subjects were randomized as follows: 92 subjects to a q6 group (1 g of IV acetaminophen every 6 hours), 91 subjects to a q4 group (650 mg of IV acetaminophen every 4 hours), and 28 subjects to a standard of care control group, which could include oral acetaminophen, but no IV acetaminophen. […] The primary endpoint was an assessment of safety using spontaneous adverse event reporting and daily liver enzymes. Efficacy evaluations were also performed. All analyses of efficacy were conducted on the modified intent-to-treat population separately for the two indications (acute pain and fever). Subjects' Global Evaluations were summarized descriptively (n, mean, SD, median, minimum, and maximum) by treatment group for each study day and for overall assessments. Summary statistics were also provided for each site. Comparisons of efficacy endpoints between the following pairs of treatment groups were investigated using two-sided tests at the 5% level of significance: • IV acetaminophen 1 g versus IV acetaminophen 650 mg • IV acetaminophen 1 g versus standard of care treatment • IV acetaminophen 650 mg versus standard of care treatment A one-way analysis of variance (ANOVA) model with treatment group as the factor was used to test the treatment difference between these pairs. All groups were included in this analysis model. The p-values from the ANOVA model were presented along with the summary statistics. […] A one-way ANOVA model with treatment group as the factor was used to test the treatment difference between each treatment pair: • IV acetaminophen 1 g q6h versus IV acetaminophen 650 mg […] • IV acetaminophen 1 g q6h versus standard of care treatment (Control) • IV acetaminophen 650 mg […] versus standard of care treatment (Control) All endpoints were tested at the 0.05 significance level (two-sided).

[2] = Safety assessment in Phase III open-label multi-day study (adverse event reporting, daily liver enzymes, laboratory, vital signs); assay type: in vivo, human; conditions: for Tolerability: up to 5 days
Protocol: A Phase III, open-label, prospective, multi-center, repeated dose, randomized, multi-day safety and efficacy study was conducted in […] subjects. The subjects were randomized as follows: 92 subjects to a q6 group (1 g of IV acetaminophen every 6 hours), 91 subjects to a q4 group (650 mg of IV acetaminophen every 4 hours), and 28 subjects to a standard of care control group, which could include oral acetaminophen, but no IV acetaminophen. Subjects who completed 5 days of study treatment included 63 in the q6 group, 59 in the q4 group and 26 in the control group. The primary endpoint was an assessment of safety using spontaneous adverse event reporting and daily liver enzymes. Efficacy evaluations were also performed.
All analyses of safety were conducted on the safety population.
Percentage of subjects withdrawn due to adverse event, percentage of subjects with adverse events (AEs) or serious adverse events (SAEs), and percentage of subjects with clinically meaningful changes in laboratory parameters were summarized.
All adverse events and serious adverse events were coded according to the Medical Dictionary for Regulatory Activities (MedDRA), Version 10.0. […] Liver function test abnormalities were graded using the Common Terminology Criteria for Adverse Events.
For each clinical laboratory parameter, descriptive statistics (n, mean, standard deviation, median, and range) were tabulated for baseline and final values. Change from baseline was tabulated for those subjects who had both baseline and final values. Liver function tests were also evaluated using values that were normalized to the upper limit of normal values for the local laboratory.
A shift table was prepared to present the shift in baseline clinical laboratory values that were clinically relevantly high or low at baseline and/or final measurement.
Descriptive statistics (n, mean, standard deviation, median, and range) were tabulated for changes in vital signs from baseline to final measurement.

Compound: CC(=O)Nc1ccc(O)cc1 [IV acetaminophen, acetaminophen]
- Subject Global Assessment, level of satisfaction with the side effects related to study treatments, mean rating ([1]; 650 mg q4h IV, day 4, scale 0-3, control 2.2, p=0.1162): 2.5
- Subject Global Assessment, level of satisfaction with the side effects related to study treatments, mean rating ([1]; 650 mg q4h IV, day 5 24 h lookback, scale 0=poor to 3=excellent, control 2.0, p=0.0167): 2.4
- Subject Global Assessment, level of satisfaction with the side effects related to study treatments, mean rating ([1]; 650 mg q4h IV, end of day 5 prior to discharge 24 h lookback, scale 0-3, control 2.0, p=0.0129): 2.4
- Efficacy conclusion based upon the global satisfaction ratings ([1]; 650 mg q4h group): efficacious
- Subject Global Assessment, level of satisfaction with the study treatments, difference versus control group ([1]; 650 mg q6h group (so in the source) versus standard of care control): no statistically significant differences
- Subject Global Assessment, level of satisfaction with the side effects related to study treatments, mean rating ([1]; 1 g q6h IV, day 4, scale 0-3, control 2.2, p=0.0744): 2.5
- Subject Global Assessment, level of satisfaction with the side effects related to study treatments, mean rating ([1]; 1 g q6h IV, day 5 24 h lookback, scale 0-3, control 2.0, p=0.0062): 2.4
- Subject Global Assessment, level of satisfaction with the side effects related to study treatments, mean rating ([1]; 1 g q6h IV, end of day 5 prior to discharge 24 h lookback, scale 0-3, control 2.0, p=0.0073): 2.5
- Efficacy conclusion based upon the global satisfaction ratings ([1]; 1 g q6h group): efficacious
- Subject Global Assessment, level of satisfaction with the study treatments, difference versus control group ([1]; 1 g q6h group versus standard of care control): no statistically significant differences
- Subject Global Assessments (study treatments or side effects), difference between the two active treatment groups ([1]; 1 g q6h versus 650 mg q4h, daily 24 h lookback day 2 to end of day 5): no statistically significant differences
- Tolerability ([2]; 650 mg dose group (q4h)): well tolerated
- Tolerability ([2]; 1000 mg dose group (q6h)): well tolerated
- Frequency of liver enzyme elevations seen in the treatment groups ([2]; between treatment groups, includes alanine aminotransferase and aspartate aminotransferase): comparable
- Frequency of serious, severe, related, or overall treatment emergent adverse events (TEAEs), difference between the treatment groups ([2]; q6 (1 g), q4 (650 mg) and standard of care control groups): no clinically relevant differences
